Results taken from patent publication US8865634B2, “4-alkyl substituted pyridines as odiferous substances” (Symrise AG, priority 2008, dated 2014).

How the values were obtained:
[1] = Diffusivity test (Petri dish 50 cm in front of the test subject, intensity rating); settings: scale 1-9 (1=odorless to 9=very strong); 0.5 g in Petri dish, 50 cm from test subject, 20-25° C.
Source text: 0.5 g of the odiferous substances to be tested are each weighed in a Petri dish and sealed with the lid. The Petri dish is placed 50 cm in front of the test subject (the distance is marked on the table before the test commences).
The lid is then removed from the Petri dish and a stopwatch is simultaneously started by the test subject. The test subject stops the time immediately they perceive the odor. The test subject assesses the intensity of the sample on a scale of 1=odorless to 9=very strong. The stop time and the intensity are noted on the test sheet.
Each sample is evaluated by the test subject three times. In order to be certain that the result is not distorted, all windows and doors must be shut. The room is at normal temperature (20-25° C.). […] As a rule a minimum of 8 participants evaluate the sample.

[2] = Threshold value in air (odor perception threshold, sample bag with gas stream); settings: equilibrium approximately 18 hours at ambient temperature; as a rule 8 test subjects
Method: The odiferous substance to be tested is evaporated in a defined sampling system and then assessed sensorially with regard to the perception threshold. The sampling system comprises the sample bag and a gas stream outlet. A defined quantity of the desired odiferous substance is squirted into the bag. The equilibrium time after filling with the sample is approximately 18 hours at ambient temperature; then the content of the bag is presented to the test subject by means of a constant gas stream. At the first discernable olfactory impression a response button is pressed. The odor threshold concentration is achieved when in the next dilution stage the olfactory impression is confirmed by repeated pressing of the response button. The concentration of the sample is increased between the previous and the next samples by a factor of 2.
The assessment of the threshold value in air is measured against a standard and as a rule 8 test subjects take part in the sensorial evaluation. The participants have no anosmia in respect of the samples to be investigated.

[3] = Olfactory description of the individual compounds; settings: pure compound
Source text: The olfactory descriptions of the individual compounds are as follows: […]

[4] = Olfactory evaluation of perfume oils with and without 4-decyl pyridine dosed into products
Source text: The composition with 4-n-decyl pyridine also has a fresher radiance overall.
Furthermore, the composition as a whole appears to be more harmonious and rounded.

Compound | Diffusivity [1] | Threshold value in air [2] [ppm] | olfactory description [3] | other results
CCCCCCCCCCc1ccncc1 [4-decyl pyridine] | 8.1 | 0.014 | valuable marine character prized and sought after by perfumists | olfactory effect in perfume oil ([4]; 0.001% in perfume oil F2, 12% perfume oil in ethanol (fine fragrance)): intensifies the transparent fresh head note; olfactory effect in perfume oil ([4]; 0.005% in perfume oil A2, 0.3% perfume oil in all-purpose cleaner, versus A1): extreme intensification of the marine-mossy note; olfactory effect in perfume oil (booster effect) ([4]; 0.01% in perfume oil P2, 0.3% perfume oil in washing powder, versus P1): intensification of the lily of the valley and the fruity notes to a quite exceptional extent; olfactory effect in perfume oil ([4]; 0.02% in perfume oil D2, 0.5% perfume oil in shower gel): boosts (intensifies) the watery-fresh head note of the perfume oil composition; olfactory effect in perfume oil ([4]; 0.05% in perfume oil S2, 0.5% perfume oil in shampoo): intensifies (at a dosing of 0.5% of the perfume oil in the shampoo) the fruity peach/apricot character; olfactory effect in perfume oil ([4]; 0.07% in perfume oil C2, 1.2% perfume oil in soap, versus C1): enormous intensification of the fresh characteristic; olfactory effect in perfume oil ([4]; 1.0% in perfume oil W2, 0.6% perfume oil in fabric conditioner): greatly increases the sought-after violet character
CCCCCCCCCCCCc1ccncc1 [4-n-dodecyl pyridine] |  |  | Marine (watery) note, reminiscent of seaweed | 
CCCCCCCCCc1ccncc1 [4-n-nonyl pyridine, 4-nonyl pyridine] |  |  | distinctive odor of the sea | 
CCCCCCCCc1ccncc1 [4-n-octyl pyridine, 4-octyl pyridine] |  |  | very intensive marine (watery) odor with an ozone note | 
CCCCCCCCCCCc1ccncc1 [4-n-undecyl pyridine, 4-undecyl pyridine] |  |  | marine character, combining an aldehyde-like note with slight echoes of mandarin | 
CC(C)=CCCC(C)=CCCc1ccncc1 [Maritima ®, 4-(4,8-dimethyl-3,7-nonadienyl)-pyridine, reference compound] | 3.4 | 0.155 |  | 
